# Tests used:
# [1] = tested on: HIV-IIIb; experiment: Test A: Antiviral Assay in MT4 Cells; assay type: cell-based, HIV-1; details: Human immunodeficiency virus 1, IIIB, MT4, 120 h; for inhibition at 0.2 µM: read-out: % inhibition at 0.2 μM; for inhibition at 2 µM: read-out: % inhibition at 2 μM
# Experimental: Test A: Antiviral Assay in MT4 Cells
# (§1) MT-4 cells were next mixed with HIV-IIIb at an m.o.i of 0.003 for 1 hour, after which time 35 μL of virus/cell mixture (2000 cells) was immediately added to each well containing 40 μL of diluted compound. The plates were then incubated at 37° C. for 5 days. […] Cell lysis was carried out by incubating at room temperature for 10 min and then chemiluminescence was read.
# [2] = Test B: Cytotoxicity Assay; assay type: cell-based; details: human, uninfected MT-4 cells, same protocol as Test A
# Experimental: as §1
# Test B: Cytotoxicity Assay
# Compound cytotoxicity and the corresponding CC50 values was determined using the same protocol as described in the antiviral assay (Test A) except that uninfected cells were used.
Compound,inhibition at 0.2 µM [1],inhibition at 2 µM [1],CC50 at 5 days [2]
"CCn1nc(N)c2cccc(-c3ccc(C#CC(C)(C)O)nc3[C@H](Cc3cc(F)cc(F)c3)NC(=O)Cn3nc(C(F)(F)F)c4c3C(F)(F)[C@@H]3C[C@H]43)c21 [Compound 45G, N—((S)-1-(3-(3-amino-1-ethyl-1H-indazol-7-yl)-6-(3-hydroxy-3-methylbut-1-yn-1-yl)pyridin-2-yl)-2-(3,5-difluorophenyl)ethyl)-2-((3b-S,4aR)-5,5-difluoro-3-(trifluoromethyl)-3b,4,4a,5-tetrahydro-1H-cyclopropa[3,4]cyclopenta[1,2-c]pyrazol-1-yl)acetamide]",92%,92%,10.4 µM
"CC(C)(O)C#Cc1ccc(-c2ccc3[nH]nc(N)c3c2)c([C@H](Cc2cc(F)cc(F)c2)NC(=O)Cn2nc(C(F)(F)F)c3c2C(F)(F)[C@@H]2C[C@H]32)n1 [Compound 46, N—((S)-1-(3-(3-amino-1H-indazol-5-yl)-6-(3-hydroxy-3-methylbut-1-yn-1-yl)pyridin-2-yl)-2-(3,5-difluorophenyl)ethyl)-2-((3b-S,4aR)-5,5-difluoro-3-(trifluoromethyl)-3b,4,4a,5-tetrahydro-1H-cyclopropa[3,4]cyclopenta[1,2-c]pyrazol-1-yl)acetamide]",87%,89%,10.5 µM
"Cn1cnc(S(=O)(=O)Nc2nn(C)c3c(-c4ccc(C#CC(C)(C)O)nc4[C@H](Cc4cc(F)cc(F)c4)NC(=O)Cn4nc(C(F)(F)F)c5c4C(F)(F)[C@@H]4C[C@H]54)cccc23)c1 [Compound 47, 2-((3bS,4aR)-5,5-difluoro-3-(trifluoromethyl)-3b,4,4a,5-tetrahydro-1H-cyclopropa[3,4]cyclopenta[1,2-c]pyrazol-1-yl)-N—((S)-2-(3,5-difluorophenyl)-1-(6-(3-hydroxy-3-methylbut-1-yn-1-yl)-3-(1-methyl-3-(1-methyl-1H-imidazole-4-sulfonamido)-1H-indazol-7-yl)pyridin-2-yl)ethyl)acetamide]",100%,100%,21.4 µM
"Cn1cc(S(=O)(=O)Nc2nn(C)c3c(-c4ccc(C#CC(C)(C)O)nc4[C@H](Cc4cc(F)cc(F)c4)NC(=O)Cn4nc(C(F)(F)F)c5c4C(F)(F)[C@@H]4C[C@H]54)cccc23)cn1 [Compound 48, 2-((3bS,4aR)-5,5-difluoro-3-(trifluoromethyl)-3b,4,4a,5-tetrahydro-1H-cyclopropa[3,4]cyclopenta[1,2-c]pyrazol-1-yl)-N—((S)-2-(3,5-difluorophenyl)-1-(6-(3-hydroxy-3-methylbut-1-yn-1-yl)-3-(1-methyl-3-(1-methyl-1H-pyrazole-4-sulfonamido)-1H-indazol-7-yl)pyridin-2-yl)ethyl)acetamide]",88%,88%,24 µM
"Cn1nc(NS(=O)(=O)c2cn[nH]c2)c2cccc(-c3ccc(C#CC(C)(C)O)nc3[C@H](Cc3cc(F)cc(F)c3)NC(=O)Cn3nc(C(F)(F)F)c4c3C(F)(F)[C@@H]3C[C@H]43)c21 [Compound 49, 2-((3bS,4aR)-5,5-difluoro-3-(trifluoromethyl)-3b,4,4a,5-tetrahydro-1H-cyclopropa[3,4]cyclopenta[1,2-c]pyrazol-1-yl)-N—((S)-2-(3,5-difluorophenyl)-1-(6-(3-hydroxy-3-methylbut-1-yn-1-yl)-3-(1-methyl-3-(1H-pyrazole-4-sulfonamido)-1H-indazol-7-yl)pyridin-2-yl)ethyl)acetamide]",87%,87%,24 µM
"Cn1nc(NC(=O)NC2CC2)c2cccc(-c3ccc(C#CC(C)(C)O)nc3[C@H](Cc3cc(F)cc(F)c3)NC(=O)Cn3nc(C(F)(F)F)c4c3C(F)(F)[C@@H]3C[C@H]43)c21 [Compound 50, N—((S)-1-(3-(3-(3-cyclopropylureido)-1-methyl-1H-indazol-7-yl)-6-(3-hydroxy-3-methylbut-1-yn-1-yl)pyridin-2-yl)-2-(3,5-difluorophenyl)ethyl)-2-((3b-S,4aR)-5,5-difluoro-3-(trifluoromethyl)-3b,4,4a,5-tetrahydro-1H-cyclopropa[3,4]cyclopenta[1,2-c]pyrazol-1-yl)acetamide]",95%,96%,11.7 µM
"CN1CCN(C(=O)Nc2nn(C)c3c(-c4ccc(C#CC(C)(C)O)nc4[C@H](Cc4cc(F)cc(F)c4)NC(=O)Cn4nc(C(F)(F)F)c5c4C(F)(F)[C@@H]4C[C@H]54)cccc23)CC1 [Compound 51, N-(7-(2-((S)-1-(2-((3bS,4aR)-5,5-difluoro-3-(trifluoromethyl)-3b,4,4a,5-tetrahydro-1H-cyclopropa[3,4]cyclopenta[1,2-c]pyrazol-1-yl)acetamido)-2-(3,5-difluorophenyl)ethyl)-6-(3-hydroxy-3-methylbut-1-yn-1-yl)pyridin-3-yl)-1-methyl-1H-indazol-3-yl)-4-methylpiperazine-1-carboxamide]",95%,95%,11.1 µM
"Cn1nc(NC(=O)N2CCOCC2)c2cccc(-c3ccc(C#CC(C)(C)O)nc3[C@H](Cc3cc(F)cc(F)c3)NC(=O)Cn3nc(C(F)(F)F)c4c3C(F)(F)[C@@H]3C[C@H]43)c21 [Compound 52, N-(7-(2-((S)-1-(2-((3bS,4aR)-5,5-difluoro-3-(trifluoromethyl)-3b,4,4a,5-tetrahydro-1H-cyclopropa[3,4]cyclopenta[1,2-c]pyrazol-1-yl)acetamido)-2-(3,5-difluorophenyl)ethyl)-6-(3-hydroxy-3-methylbut-1-yn-1-yl)pyridin-3-yl)-1-methyl-1H-indazol-3-yl)morpholine-4-carboxamide]",92%,93%,31.8 µM
"CCNS(=O)(=O)Nc1nn(C)c2c(-c3ccc(C#CC(C)(C)O)nc3[C@H](Cc3cc(F)cc(F)c3)NC(=O)Cn3nc(C(F)(F)F)c4c3C(F)(F)[C@@H]3C[C@H]43)cccc12 [Compound 53, 2-((3bS,4aR)-5,5-difluoro-3-(trifluoromethyl)-3b,4,4a,5-tetrahydro-1H-cyclopropa[3,4]cyclopenta[1,2-c]pyrazol-1-yl)-N—((S)-2-(3,5-difluorophenyl)-1-(3-(3-((N-ethylsulfamoyl)amino)-1-methyl-1H-indazol-7-yl)-6-(3-hydroxy-3-methylbut-1-yn-1-yl)pyridin-2-yl)ethyl)acetamide]",92%,92%,8.03 µM
"Cn1nc(NS(N)(=O)=O)c2cccc(-c3ccc(C#CC(C)(C)O)nc3[C@H](Cc3cc(F)cc(F)c3)NC(=O)Cn3nc(C(F)F)c4c3C(F)(F)[C@@H]3C[C@H]43)c21 [Compound 54, 2-((3b-S,4aR)-3-(difluoromethyl)-5,5-difluoro-3b,4,4a,5-tetrahydro-1H-cyclopropa[3,4]cyclopenta[1,2-c]pyrazol-1-yl)-N—((S)-2-(3,5-difluorophenyl)-1-(6-(3-hydroxy-3-methylbut-1-yn-1-yl)-3-(1-methyl-3-(sulfamoylamino)-1H-indazol-7-yl)pyridin-2-yl)ethyl)acetamide]",98%,98%,8.08 µM
"Cn1nc(N)c2c(Cl)ccc(-c3ccc(C#CC(C)(C)O)nc3[C@H](Cc3cc(F)cc(F)c3)NC(=O)Cn3nc(C(F)(F)F)c4c3C(F)(F)[C@@H]3C[C@H]43)c21 [Compound 55C, N—((S)-1-(3-(3-amino-4-chloro-1-methyl-1H-indazol-7-yl)-6-(3-hydroxy-3-methylbut-1-yn-1-yl)pyridin-2-yl)-2-(3,5-difluorophenyl)ethyl)-2-((3b-S,4aR)-5,5-difluoro-3-(trifluoromethyl)-3b,4,4a,5-tetrahydro-1H-cyclopropa[3,4]cyclopenta[1,2-c]pyrazol-1-yl)acetamide]",92%,92%,9.56 µM
"CN1CCN(S(=O)(=O)Nc2nn(C)c3c(-c4ccc(C#CC(C)(C)O)nc4[C@H](Cc4cc(F)cc(F)c4)NC(=O)Cn4nc(C(F)(F)F)c5c4C(F)(F)[C@@H]4C[C@H]54)cccc23)CC1 [Compound 56F, 2-((3bS,4aR)-5,5-difluoro-3-(trifluoromethyl)-3b,4,4a,5-tetrahydro-1H-cyclopropa[3,4]cyclopenta[1,2-c]pyrazol-1-yl)-N—((S)-2-(3,5-difluorophenyl)-1-(6-(3-hydroxy-3-methylbut-1-yn-1-yl)-3-(1-methyl-3-(4-methylpiperazine-1-sulfonamido)-1H-indazol-7-yl)pyridin-2-yl)ethyl)acetamide]",97%,97%,19 µM
"Cn1nc(N)c2c(Cl)ccc(-c3ccc(C#CC(C)(C)O)nc3[C@H](Cc3cc(F)cc(F)c3)NC(=O)Cn3nc(C(F)F)c4c3C(F)(F)[C@@H]3C[C@H]43)c21 [Compound 57, N—((S)-1-(3-(3-amino-4-chloro-1-methyl-1H-indazol-7-yl)-6-(3-hydroxy-3-methylbut-1-yn-1-yl)pyridin-2-yl)-2-(3,5-difluorophenyl)ethyl)-2-((3bS,4aR)-3-(difluoromethyl)-5,5-difluoro-3b,4,4a,5-tetrahydro-1H-cyclopropa[3,4]cyclopenta[1,2-c]pyrazol-1-yl)acetamide]",93%,93%,7.63 µM

# — US20140303164A1, “THERAPEUTIC COMPOUNDS” (Gilead Sciences, Inc., priority 2013, published 2014)
